Reference: US20230302164A1, “PSMA-Targeting Ligands With Optimal Properties for Imaging and Therapy” (Wisconsin Alumni Research Foundation, priority 2021, published 2023)
Where two headings read alike, the source gives them in different places.

Tests used:
[1] = test system: PC3-PIP tumor xenografts; test: Ex vivo biodistribution in PC3-PIP mice after last imaging timepoint; details: 24 h p.i. (617, C12) or 72 h p.i. (PhC18)
Experimental: Next, an ex vivo biodistribution analysis was performed following the last imaging timepoint at 24 h p.i. for PC3-PIP mice injected intravenously with ^86Y-PSMA-617 and ^86Y-PSMA-C12 and at 72 h p.i. in mice administered ^86Y-PSMA-PhC18.

[2] = molecular target: T1, PSMA (LNCap cells, PSMA positive) (Homo sapiens, UniProt Q04609); test: Competitive binding assay in LNCap cells using 86Y as a radioligand; details: 86Y radioligand, read-out: half inhibition concentration (IC50)
T1 construct: endogenous in cells; host or cells: LNCap cells (human prostate adenocarcinoma)
Experimental: Competitive binding assays were performed in LNCap cells (PSMA positive, androgen-sensitive human prostate adenocarcinoma cells) using ^86Y as a radioligand.

[3] = PET/CT imaging in normal ICR mice, blood kinetics by region of interest analysis of the heart; assay type: in vivo; details: i.v., PET days 0-2
Experimental: Compounds PSMA-C12 and PSMA-PhC18 were dissolved in water at a concentration of 1-2 mg/mL. Radiolabeling with Y-86 was carried out in NaOAc buffer (pH 5.0) at 90-95 C for 30 min to 1 h at constant stirring. Ten micrograms of compound per mCi of ^86Y were employed, affording quantitative radiochemical yields. Purification of the compounds was carried out using reverse-phase solid-phase chromatography and purified compounds were redissolved in physiological injection media (e.g., normal saline). Quality control was conducted using reverse-phase HPLC.
In PET/CT imaging studies, 100-250 µCi of ^86Y-PSMA-C12 and ^86Y-PSMA-PhC18 were intravenously administered into normal ICR mice, and mice were scanned on days 0, 1, and 2 after injection. The results are shown in FIG. 1 (for ^86Y-PSMA-C12) and in FIG. 2 (for ^86Y-PSMA-PhC18). Blood circulation kinetics were analyzed through a region of interest analysis of the heart.
To our knowledge, ^86Y-PSMA-PhC18 is the only PSMA inhibitor showing long circulation without albumin binding, and that has predominantly hepatic excretion. These features have clear advantages over other previously known PSMA ligands for prostate cancer theranostics.

[4] = test system: LNCap tumor xenografts with lower PSMA expression; test: PET/CT imaging and region of interest analysis in nude mice bearing LNCap tumor xenografts; assay type: in vivo
Experimental: Next, PET/CT imaging studies were performed in nude mice bearing LNCap tumor xenografts with lower PSMA expression. The mice were injected intravenously with ^86Y-PSMA-617, ^86Y-PSMA-C12, or ^86Y-PSMA-PhC18 and scanned up to 72 h p.i. […] Finally, a region of interest analysis was then performed on the PET/CT images in nude mice bearing LNCap tumor xenografts injected intravenously with ^86Y-PSMA-617, ^86Y-PSMA-C12, or ^86Y-PSMA-PhC18 and scanned up to 72 h post injection.

[5] = test system: PC3-PIP tumor xenografts; test: PET/CT imaging and region of interest analysis in nude mice bearing PC3-PIP tumor xenografts; assay type: in vivo
Experimental: Next, PET/CT imaging studies were performed in nude mice bearing PC3-PIP tumor xenografts ([…] tumors) injected intravenously with ^86Y-PSMA-617, ^86Y-PSMA-C12, or ^86Y-PSMA-PhC18 and scanned up to 72 h post injection.
A region of interest analysis was then performed on the PC3-PIP tumor xenografts injected intravenously with ^86Y-PSMA-617, ^86Y-PSMA-C12, or ^86Y-PSMA-PhC18 and scanned up to 72 h post injection.

[6] = Partition (logP) and distribution (logD) coefficients, hydrophobicity comparison; assay type: physicochemical; details: for LogD: distribution coefficient; for LogD / LogP: 177Lu-labeled compound; for LogP: partition coefficient
[7] = nude mice, i.v., scanned up to 72 h
[8] = nude mice, region of interest analysis

T1 sequence (Q04609 whole entry): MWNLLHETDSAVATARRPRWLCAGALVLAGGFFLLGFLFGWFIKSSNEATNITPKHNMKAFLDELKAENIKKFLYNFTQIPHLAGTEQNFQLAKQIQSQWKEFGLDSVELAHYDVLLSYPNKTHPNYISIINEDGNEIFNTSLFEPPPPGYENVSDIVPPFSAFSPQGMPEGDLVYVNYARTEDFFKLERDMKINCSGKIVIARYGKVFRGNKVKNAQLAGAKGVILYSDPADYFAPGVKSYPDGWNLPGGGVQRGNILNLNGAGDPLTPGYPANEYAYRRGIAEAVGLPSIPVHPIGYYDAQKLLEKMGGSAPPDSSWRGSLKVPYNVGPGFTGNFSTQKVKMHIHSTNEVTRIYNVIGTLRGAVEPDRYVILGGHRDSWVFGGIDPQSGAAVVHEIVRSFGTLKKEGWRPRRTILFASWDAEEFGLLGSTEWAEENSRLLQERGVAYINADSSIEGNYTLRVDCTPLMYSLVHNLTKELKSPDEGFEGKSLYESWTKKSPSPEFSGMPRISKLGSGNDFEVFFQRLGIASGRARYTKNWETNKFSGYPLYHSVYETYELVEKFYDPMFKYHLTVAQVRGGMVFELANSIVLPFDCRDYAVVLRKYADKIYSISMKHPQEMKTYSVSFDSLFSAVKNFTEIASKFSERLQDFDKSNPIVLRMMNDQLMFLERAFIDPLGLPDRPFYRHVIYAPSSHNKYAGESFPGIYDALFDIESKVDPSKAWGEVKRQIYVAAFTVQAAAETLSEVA

O=C(O)CCC(NC(=O)NC(CCCCNC(=O)CCCCCCCCCCCNC(=O)CN1CCN(CC(=O)O)CCN(CC(=O)O)CCN(CC(=O)O)CC1)C(=O)O)C(=O)O (stereo not drawn) [^86Y-PSMA-C12, metal not drawn]
tissue with highest uptake in ex vivo biodistribution [1]: the tumor shows the highest uptake of all analysed tissues | IC50 [2]: 58.2 nM | blood circulation [3]: short circulation half-life | excretion route [3]: renal excretion

O=C(O)CCC(NC(=O)NC(CCCCNC(=O)CCCCCCCCCCCCCCCCCc1ccc(NC(=O)CN2CCN(CC(=O)O)CCN(CC(=O)O)CCN(CC(=O)O)CC2)cc1)C(=O)O)C(=O)O (stereo not drawn) [^86Y-PSMA-PhC18, metal not drawn]
clearance from normal organs ([4]; nude mice): Steady clearance from normal organs | tumor uptake and retention versus 86Y-PSMA-617 ([4]; nude mice, PET/CT): significantly improved | blood circulation [4, 7]: prolonged blood circulation | renal clearance [4, 7]: minimal renal clearance | blood circulation half-life [4, 8]: 15.1 h | time at which tumor uptake plateaued ([4]; p.i.): 24 h | tumor uptake at 72 h p.i. relative to 86Y-PSMA-617 and 86Y-PSMA-C12 at 24 h p.i. ([4]; region of interest analysis): five times higher | tissue with highest uptake in ex vivo biodistribution [1]: the tumor shows the highest uptake of all analysed tissues | blood circulation [3]: prolonged circulation | excretion route [3]: hepatobiliary excretion | tumor uptake and retention versus 86Y-PSMA-617 and 86Y-PSMA-C12 ([5]; nude mice, i.v., PET/CT): significantly improved | blood circulation [5, 7]: prolonged blood circulation | renal clearance [5, 7]: minimal renal clearance | blood circulation half-life [5, 8]: 11.7 h | blood circulation half-life (unit not given) ([5]; nude mice, region of interest analysis, FIG. 5 legend): 11.7 h | time at which tumor uptake plateaus ([5]; post injection): 24 h

O=C([O-])CN1CCN(CC(=O)[O-])CCN(CC(=O)NCC2CCC(C(=O)N[C@@H](Cc3ccc4ccccc4c3)C(=O)NCCCC[C@H](NC(=O)N[C@@H](CCC(=O)O)C(=O)O)C(=O)O)CC2)CCN(CC(=O)[O-])CC1.[177Lu+3] (stereo partly drawn) [^177Lu-PSMA-617, reference compound]
LogD [6]: -3.2 | LogP [6]: -2.8

O=C(O)CCC(NC(=O)NC(CCCCNC(=O)CCCCCCCCCCCNC(=O)CN1CCN(CC(=O)O)CCN(CC(=O)O)CCN(CC(=O)O)CC1)C(=O)O)C(=O)O (stereo not drawn) [^177Lu-PSMA-C12, metal not drawn]
LogD ([6]; read-out: LogD): -2.9 | LogP ([6]; read-out: LogP): -2.6

O=C(O)CCC(NC(=O)NC(CCCCNC(=O)CCCCCCCCCCCCCCCCCc1ccc(NC(=O)CN2CCN(CC(=O)O)CCN(CC(=O)O)CCN(CC(=O)O)CC2)cc1)C(=O)O)C(=O)O (stereo not drawn) [^177Lu-PSMA-PhC18, metal not drawn]
hydrophobicity comparison ([6]; 177Lu-labeled compounds compared with each other): two orders of magnitude more hydrophobic | LogD [6]: -1.2 | LogP [6]: -0.8
